According to patent publication US8580789B2, “Treating glaucoma” (The Cleveland Clinic Foundation, priority 2007, dated 2013):
“And” between values parts separate entries of the source, which are not always exact repeats. Equal values may be shown once.

Assays:
human sclera = conditions: scleral strips; 1 hour glutaraldehyde, 5 days glyceraldehydes, 30 minutes UVA for riboflavin/UVA; cited from earlier work
peripapillary sclera [1] = assay: Estimate of PS ring elastic (secant) modulus by LaPlace equation and measured strain; parameters: species or system porcine
Description: By a similar analysis of strain across the ON in the same eyes, the pressure-induced change in ON diameter was 10.5±3.9% horizontally and 9.4±6.5% vertically prior to crosslinking. The combined vertical and horizontal strain averaged 7.3±4.4% across the PS ring and 10.2±5.4% across the ON/LC region alone (p=0.22). […] The native stiffness value compares favorably to the porcine scleral modulus of 500 kPa measured by Pierscionek B K, et al., Br J Opthalmol.; 91(6):801-803 (2007) particularly since their measurement was obtained at a lower peak pressure (50 mmHg) and was obtained from the entire sclera, which incorporates the thinner and effectively more elastic sclera anterior to the posterior pole (Olsen T W, et al., Invest Opthalmol Vis Sci; 43(8):2529-2532 (2002)).
The elastic modulus (E) of peripapillary sclera (PS) in Group 3 was estimated before and after crosslinking. First, measured PS strain was […] the circumferential stress as derived from the LaPlace equation, σ=IOP×R/2t, where σ indicates the circumferential stress as a function of IOP, scleral radius of curvature (R), and sclera thickness (t). […]

peripapillary sclera [2] = assay: Photographic circumferential strain analysis during IOP elevation, peripapillary sclera; parameters: species or system porcine; conditions: Group 3; GTA on PS only; IOP 2-4 to 80 mmHg
Experimental: Eighteen porcine globes were divided evenly into 3 groups. The optic nerves were transected to expose the ON/LC, and each globe was infused through an in-line pressure transducer for direct IOP control. Surface wave velocity, a non-destructive measure of tissue stiffness, was measured across the ON/LC and PS before and after collagen crosslinking at IOP of 10 and 30 mmHg (groups 1 and 2) and at each globe's preinflation IOP and 80 mmHg (group 3). In group 3, papillary strain was measured by analyzing the displacement of fiducial marks immediately adjacent to the ON/LC using digital photography.
In group 3 (n=6), the same procedure described for group 2 was implemented with the following exceptions. First, four fiducial ink marks were placed in each quadrant of the PS immediately adjacent to the ON/LC prior to measurement. High-resolution (7.1 megapixel) digital photos were then taken at both low and high IOP before and after crosslinking. The vertical and horizontal distances between the outer extent of the ink marks and the outer margins of the optic nerve were measured in Photoshop (Adobe Systems, Inc., San Jose, Calif.), and the centripetal displacement of the fiducial marks (Δ1) was divided by the initial distance between the marks (10) to yield dimensionless indicators of circumferential strain (ζ=Δ1/10) in the peripapillary sclera and ON/LC, respectively. Second, measurements were acquired at each eye's pre-inflation pressure (between 2 to 4 mmHg) and at 80 mmHg to ensure that measurable changes in SWV and ON/LC geometry would be generated in at least one experimental group. As in group 2, the peripapillary sclera was selectively exposed to GTA and post-crosslinking measurements were repeated at low and high IOP. Same-eye statistical comparisons of wave velocity and strain were performed with paired student's t-tests.

O=CCCCC=O [GTA, glutaraldehyde]
Rise in human scleral stress (rigidity) (human sclera): 122% | PS ring elastic modulus after crosslinking (estimate) (peripapillary sclera [1]; Group 3, GTA, stress increment 4 to 80 mmHg divided by crosslinked strain): 16.1 MPa | Increase in stiffness (elastic modulus) of peripapillary sclera with crosslinking (peripapillary sclera [1]; glutaraldehyde-mediated crosslinking, estimate): ~20 fold | Average Circumferential Strain of PS with IOP elevation, Post-Crosslinking Mean ± SD (peripapillary sclera [2]): 0.38% and 0.4 ± 1.3% | Horizontal Circumferential Strain of PS with IOP elevation, Post-Crosslinking Mean ± SD (peripapillary sclera [2]): 0.0 ± 0.0% | Vertical Circumferential Strain of PS with IOP elevation, Post-Crosslinking Mean ± SD (peripapillary sclera [2]): 0.7 ± 1.9%
